# Reference: patent US9566312B2, “Cyclic peptides and use as medicines” (priority 2012, dated 2017)
# Starred links: 1 amine or outer side, 2 acyl side, 3 side chain; linkers in the order of their positions; H or OH if unused. Non-standard residues stand in square brackets, D forms with d. Residues, ends and D or L forms follow the SMILES beside them. X64 = COC[C@@H]1CN(C[C@@H](C)[C@@H](C(=O)[*:2])N(C)[*:1])CCO1; X83 = C[C@H](COC(=O)N1CCC(O)CC1)[C@@H](C(=O)[*:2])N(C)[*:1]; MeBmt = C/C=C/C[C@@H](C)[C@@H](O)[C@H](NC)C(=O)O; X86 = C[C@@H](CO)[C@@H](C(=O)[*:2])N(C)[*:1]; NMeL = CN[C@@H](CC(C)C)C(=O)O; NMeV = CN[C@H](C(=O)O)C(C)C; dNMeA = CN[C@H](C)C(=O)O; Abu = CC[C@H](N)C(=O)O
# Experiments:
# cyclophilin B (CypB) = cyclophilin B (CypB) (Homo sapiens (Human), UniProt P23284); test: Inhibitor binding to cyclophilin proteins by SPR, CypB; design: unit not given here; conditions: 1:1 binding model
# Description: (§1) Method 1: Measuring Inhibitor Binding to Cyclophilin Proteins
# (§2) Binding of inhibitors to expressed cyclophilins was determined using surface plasmon resonance (SPR) experiments. Briefly, avi-tagged cyclophilin proteins with mono-biotinylation were immobilized onto a Biotin CAPture chip (GE Healthcare, cat. #28920234). SPR experiments were carried out on an upgraded Biacore T200 system using a running buffer containing the inhibitor, 10 mM HEPES, pH 7.4, 150 mM NaCl, 0.05% P20, and 3% DMSO. Single-cycle kinetics measurements were used to study the interactions between cyclophilin inhibitors and different cyclophlins. Accordingly, compound at various concentrations was injected to the flow cells with a contact time of 1 min each at a flow rate of 50 μL/min. The final dissociation phase lasts for 10 min following the sample injection. Data was analyzed using Biacore T200 Evaluation Software Version 1.0 and a 1:1 binding model was applied to fit the data to obtain kon, koff, and KD.
# [1] = test system: peripheral blood mononuclear cells (PBMC); test: Anti-proliferative or immunosuppressive activity, BrdU incorporation in PHA-stimulated PBMC; assay type: cell-based; conditions: PHA 3 μg/ml, 60 hour compound treatment; read-out: EMV PBMC IC50
# Description: Method 3: Measuring Anti-Proliferative or Immunosuppressive Activity
# The potential anti-proliferative activity of compounds on T-cells was analyzed based on the amount of bromodesoxy uridine (BrdU) incorporated into DNA of fresh peripheral blood mononuclear cells (PBMC) using the BrdU ELISA kit (Roche). The assay is performed in 96-well plate format with 30,000 PBMCs seeded per well in X-VIVO 15 medium (Lonza). T-cell proliferation was stimulated by addition of 3 μg/ml phytohemagglutinin (PHA) in PBMCs obtained from two donors.
# cyclophilin A (CypA) = cyclophilin A (CypA) (Homo sapiens (Human), UniProt P62937); test: Inhibitor binding to cyclophilin proteins by SPR, CypA; design: unit not given here; conditions: 1:1 binding model
# CypF = CypF (Homo sapiens (Human), UniProt P30405); test: Inhibitor binding to cyclophilin proteins by SPR, CypF; conditions: 1:1 binding model
# Description: as §1, §2
# [2] = test system: genotype 1b subgenomic HCV replicon in Huh7.5 cells; assay type: cell-based, hepatitis C virus; conditions: genotype 1b replicon, 72 h incubation; read-out: RPLN-1b IC50
# Description: Method 2: Measuring Inhibitory Effects in a HCV Replicon System
# Susceptibility to compounds was analyzed in Huh7.5 cells containing genotype 1a or 1b subgenomic HCV replicons co-expressing a luciferase reporter gene. The original replicons, pFK389lucubineo_3_3′_ET and pH/SG-Neo(L+I), were licensed from ReBlicon GmbH (Germany) and Apath LLC (Saint Louis, Mo.), respectively. The firefly reporter gen was replaced by renilla luciferase reporter gene using standard molecular biology techniques as follows.
# Generation of genotype 1b subgenomic replicon: The renilla […]-neomycin phosphotransferase cassette was amplified from pF9 cytomegalovirus (CMV) hRluc-Neo Flexi(R) (Promega) by PCR using Accuprime super mix II (Invitrogen) and a primer set of Ascl hRlucNeo Fwd and NotI hRluc Rev. These two primers have the following sequences and introduce restriction sites for subsequent cloning: Ascl hRlucNeo Fwd, 5 […] 3(Ascl site underlined) (SEQ. ID No. 1), and NotI hRluc Rev, 5[…] 3(NotI site underlined) (SEQ ID No. 2). The amplification product was subcloned into pCR2.1-TOPO (Invitrogen). The resulting plasmid was digested with Ascl and NotI, and the excised fragment (hRluc-Neo) was ligated with the Roche Quick Ligation Kit (Roche) into pFK1389lucubineo_3_3′_ET digested with the same enzymes.
# The assay medium for both, luciferase reporter HCV replicon and cytotoxicity assays contains phenol red-free DMEM and lacks G418. […] Luciferase activity of compound treated cells is measured relative to DMSO treated cells after 72 h incubation using Renilla-Glo™ Luciferase Assay (Promega). Cytotoxicity (CC50) is analyzed using Cell Titer-Glo™ (Promega).
# Sequence of cyclophilin B (CypB) (P23284 34-216): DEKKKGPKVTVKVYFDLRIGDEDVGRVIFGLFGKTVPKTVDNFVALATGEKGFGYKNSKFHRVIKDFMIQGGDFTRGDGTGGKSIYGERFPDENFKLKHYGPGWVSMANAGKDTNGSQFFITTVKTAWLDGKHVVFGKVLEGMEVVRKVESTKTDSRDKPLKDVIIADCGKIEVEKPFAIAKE
# Sequence of CypF (P30405 30-207): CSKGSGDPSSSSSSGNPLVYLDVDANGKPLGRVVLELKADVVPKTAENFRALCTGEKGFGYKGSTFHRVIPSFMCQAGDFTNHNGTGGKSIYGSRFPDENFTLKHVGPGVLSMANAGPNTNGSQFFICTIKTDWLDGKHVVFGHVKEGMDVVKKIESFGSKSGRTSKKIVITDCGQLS
# Sequence of cyclophilin A (CypA) (P62937 whole entry): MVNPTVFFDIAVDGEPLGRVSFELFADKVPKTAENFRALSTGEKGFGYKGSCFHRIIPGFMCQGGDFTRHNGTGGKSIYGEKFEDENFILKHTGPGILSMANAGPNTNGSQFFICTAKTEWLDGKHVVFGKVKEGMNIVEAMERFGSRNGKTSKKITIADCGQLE
SMILES,CypB Kd (cyclophilin B (CypB)),IC50 [1] [nM],CypA Kd (cyclophilin A (CypA)),CypF Kd (CypF) [nM],IC50 [2] [nM]
"C/C=C/C[C@@H](C)[C@@H](O)[C@H]1C(=O)N[C@@H](CC)C(=O)N(C)[C@H](C)C(=O)N(C)[C@@H]([C@H](C)CN2CCO[C@H](COC)C2)C(=O)N[C@@H](C(C)C)C(=O)N(C)[C@@H](CC(C)C)C(=O)N[C@@H](C)C(=O)N[C@H](C)C(=O)N(C)[C@@H](CC(C)C)C(=O)N(C)[C@@H](CC(C)C)C(=O)N(C)[C@@H](C(C)C)C(=O)N1C [Compound 2.5.34, 3-[D-Ala]-4-[(2S,3R)-4-((S)-2-(methoxymethyl)morpholino)-3-methyl-2-(methylamino)butanoyl]-cyclosporin] (cyclo(A[dA][NMeL][NMeL][NMeV][MeBmt][Abu][dNMeA][X64]V[NMeL]))",0.6,19000,1.3,0.6,27
"C/C=C/C[C@@H](C)[C@@H](O)[C@H]1C(=O)N[C@@H](CC)C(=O)N(C)[C@H](C)C(=O)N(C)[C@@H]([C@H](C)COC(=O)N2CCC(O)CC2)C(=O)N[C@@H](C(C)C)C(=O)N(C)[C@@H](CC(C)C)C(=O)N[C@@H](C)C(=O)N[C@H](C)C(=O)N(C)[C@@H](CC(C)C)C(=O)N(C)[C@@H](CC(C)C)C(=O)N(C)[C@@H](C(C)C)C(=O)N1C [Compound 2.5.8, 3-[D-Ala]-4-[(2S,3S)-4-((4-hydroxypiperidine-1-carbonyl)oxy)-3-methyl-2-(methylamino)butanoyl]-cyclosporin] (cyclo(A[dA][NMeL][NMeL][NMeV][MeBmt][Abu][dNMeA][X83]V[NMeL]))",1.0,–,1.7,1,–
"C/C=C/C[C@@H](C)[C@@H](O)[C@H]1C(=O)N[C@@H](CC)C(=O)N(C)[C@H](CCCNC)C(=O)N(C)[C@@H]([C@H](C)COC)C(=O)N[C@@H](C(C)C)C(=O)N(C)[C@@H](CC(C)C)C(=O)N[C@@H](C)C(=O)N[C@H](C)C(=O)N(C)[C@@H](CC(C)C)C(=O)N(C)[C@@H](CC(C)C)C(=O)N(C)[C@@H](C(C)C)C(=O)N1C (stereo in doubt) [Compound 3.2.1, 3-[(R)-2,5-bis(methylamino)pentanoyl]-4-[(2S,3S)-4-methoxy-3-methyl-2-(methylamino)butanoyl]-cyclosporin]",3.0,34900,6.3,3.4,4800
"CCCC[C@@H](C)[C@@H](O)[C@H]1C(=O)N[C@@H](CC)C(=O)N(C)[C@H](C)C(=O)N(C)[C@@H]([C@@H](C)CN2CCO[C@H](COC)C2)C(=O)N[C@@H](C(C)C)C(=O)N(C)[C@@H](CC(C)C)C(=O)N[C@@H](C)C(=O)N[C@H](C)C(=O)N(C)[C@@H](CC(C)C)C(=O)N(C)[C@@H](CC(C)C)C(=O)N(C)[C@@H](C(C)C)C(=O)N1C [Compound 2.17.12, 1-dihydro-3-[D-Ala]-4-[(2S,3S)-4-((S)-2-(methoxymethyl)morpholino)-3-methyl-2-(methylamino)butanoyl]-cyclosporin]",0.7,–,1.7,0.8,75
"C/C=C/C[C@@H](C)[C@@H](O)[C@H]1C(=O)N[C@@H](CC)C(=O)N(C)[C@H](C)C(=O)N(C)[C@@H]([C@@H](C)CO)C(=O)N[C@@H](C(C)C)C(=O)N(C)[C@@H](CC(C)C)C(=O)N[C@@H](C)C(=O)N[C@H](C)C(=O)N(C)[C@@H](CC(C)C)C(=O)N(C)[C@@H](CC(C)C)C(=O)N(C)[C@@H](C(C)C)C(=O)N1C [Compound 2.17.13, 3-[D-Ala]-4-[(2S,3R)-4-hydroxy-3-methyl-2-(methylamino)butanoyl]-cyclosporin] (cyclo(A[dA][NMeL][NMeL][NMeV][MeBmt][Abu][dNMeA][X86]V[NMeL]))",–,–,–,–,85
